The values below come from patent US7208157B2, “Proteolysis targeting chimeric pharmaceutical” (California Institute of Technology, priority 2000, dated 2007).

“Also recorded” adds a separate entry of the source. Where a SMILES comes first, the peptide text is derived from it. [ ]: non-standard residue; d: D form. Nle = CCCC[C@H](N)C(=O)O

The target in experiment [1] is T1, MetAP-2 (Homo sapiens, UniProt P50579). The experiment in a line: MetAP-2-Protac-1 coupling assay (SDS/PAGE, anti-MetAP-2 immunoblot). The class given is binding. The following applies: MetAP-2 incubated with increasing Protac-1, or free IPP (50 μM) or free OVA (50 μM), room temperature 45 min. The method, then: MetAP-2 (9 μM) was incubated with increasing concentrations of Protac-1 (dissolved in water) at room temperature for 45 min. Reactions were supplemented with SDS loading dye, fractionated on an SDS/10% polyacryl-amide gel, transferred onto a nitrocellulose membrane, and immunoblotted with rabbit polyclonal anti-MetAP-2 antiserum (Zymed). Enhanced chemiluminescence was performed by using Amersham Pharmacia detection reagents.
The IkBalpha-OVA chimera, Protac-1 (FIG. 1B), was synthesized as described above. […] A Western blot analysis was performed with anti-MetAP-2 antiserum. […] The specificity of MetAP-2 interaction with Protac-1 in vitro was also tested.
For orientation: Immunoblotting shows a protein as a band on a membrane.

The target of experiment [2] is T2, SCF^β-TRCP (Homo sapiens, UniProt Q9Y297). Briefly: Control ubiquitination of IKK-phosphorylated glutathione S-transferase-IkBalpha by SCFβ-TRCP immunoprecipitates. The class given is biochemical. Also on record: made in house; host or cells: 293T cells, transient transfection, anti-FLAG immunoprecipitation. The following applies: anti-FLAG SCFβ-TRCP immunoprecipitates; data not shown. From the text: Before testing the activity of Protac-1, an approach to isolate and assay SCF^β-TRCP complexes in vitro as described (See Tan, P., et al., Mol. Cell, 3:327–33 (1999)) was first adapted. Lysates from 293T cells transfected with plasmids that encoded β-TRCP and Cul-1 proteins tagged with the FLAG epitope at the N terminus were immunoprecipitated with anti-FLAG antibody-conjugated resin. Immunoblot analysis confirmed that all components of SCF^β-TRCP were present in the anti-FLAG immunoprecipitate, including Skp 1, Hrt 1, and the transfected FLAG Cul-1 and FLAG β-TRCP (data not shown). Furthermore, control experiments confirmed that these immunoprecipitates promoted ubiquitination of IKK-phosphorylated glutathione S-transferase-LkBalpha in a manner that was inhibited by the IPP and Protac-1 (data not shown; ref. 7). To determine whether Protac-1 could recruit MetAP-2 to SCF^β-TRCP , MetAP-2 (18 μM) was first incubated with Protac-1 (100 μM) for 45 mm at room temperature. After isolation of SCF^β-TRCP complexes, the anti-FLAG beads were supplemented with the MetAP-2-Protac-l mixture and rotated at room temperature for 1 hr. The beads and supernatant then were evaluated by Western blot analysis for the presence of MetAP-2. […]
Target sequence in this assay (Q9Y297 whole entry): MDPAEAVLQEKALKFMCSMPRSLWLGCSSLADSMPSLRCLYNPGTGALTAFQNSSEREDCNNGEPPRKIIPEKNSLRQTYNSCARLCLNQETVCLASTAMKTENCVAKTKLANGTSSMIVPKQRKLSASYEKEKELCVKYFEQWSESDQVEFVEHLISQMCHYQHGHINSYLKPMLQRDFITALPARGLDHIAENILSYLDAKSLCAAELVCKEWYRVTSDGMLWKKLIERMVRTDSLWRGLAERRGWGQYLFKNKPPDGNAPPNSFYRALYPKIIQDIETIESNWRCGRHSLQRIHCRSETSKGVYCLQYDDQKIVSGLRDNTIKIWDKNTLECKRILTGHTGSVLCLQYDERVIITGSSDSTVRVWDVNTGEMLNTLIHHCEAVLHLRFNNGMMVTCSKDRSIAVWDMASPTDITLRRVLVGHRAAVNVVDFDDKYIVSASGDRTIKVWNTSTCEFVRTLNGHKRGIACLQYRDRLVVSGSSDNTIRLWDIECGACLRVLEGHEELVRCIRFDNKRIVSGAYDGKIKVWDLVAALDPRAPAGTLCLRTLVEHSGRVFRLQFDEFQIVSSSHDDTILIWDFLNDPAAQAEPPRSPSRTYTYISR
Target sequence in this assay (Q13616 whole entry partner): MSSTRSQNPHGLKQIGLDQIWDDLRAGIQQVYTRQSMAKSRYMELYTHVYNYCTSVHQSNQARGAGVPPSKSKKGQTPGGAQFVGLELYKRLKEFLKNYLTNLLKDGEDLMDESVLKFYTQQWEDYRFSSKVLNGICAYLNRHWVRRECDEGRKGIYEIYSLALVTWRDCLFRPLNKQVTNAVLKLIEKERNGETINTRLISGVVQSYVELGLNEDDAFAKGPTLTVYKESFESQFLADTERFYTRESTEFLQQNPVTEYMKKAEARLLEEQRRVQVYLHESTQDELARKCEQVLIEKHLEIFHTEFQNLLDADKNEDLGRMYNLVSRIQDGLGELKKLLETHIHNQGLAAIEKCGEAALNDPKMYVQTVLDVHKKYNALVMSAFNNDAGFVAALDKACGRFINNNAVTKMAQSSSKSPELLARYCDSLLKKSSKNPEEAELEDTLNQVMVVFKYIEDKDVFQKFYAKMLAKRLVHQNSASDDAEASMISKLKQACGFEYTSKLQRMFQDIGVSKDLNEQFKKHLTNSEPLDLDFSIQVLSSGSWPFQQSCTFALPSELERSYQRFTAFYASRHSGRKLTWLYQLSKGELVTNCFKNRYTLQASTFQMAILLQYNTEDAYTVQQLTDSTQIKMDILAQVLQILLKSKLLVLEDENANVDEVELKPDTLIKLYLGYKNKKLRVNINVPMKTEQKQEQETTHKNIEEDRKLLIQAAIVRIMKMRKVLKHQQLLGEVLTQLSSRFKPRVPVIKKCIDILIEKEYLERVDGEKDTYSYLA
Target sequence in this assay (P63208 2-163 partner limits assumed): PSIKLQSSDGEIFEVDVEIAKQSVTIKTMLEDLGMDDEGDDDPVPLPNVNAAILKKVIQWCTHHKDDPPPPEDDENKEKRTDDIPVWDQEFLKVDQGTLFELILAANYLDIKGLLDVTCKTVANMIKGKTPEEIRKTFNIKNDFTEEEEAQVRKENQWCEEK
Target sequence in this assay (P62877 whole entry partner): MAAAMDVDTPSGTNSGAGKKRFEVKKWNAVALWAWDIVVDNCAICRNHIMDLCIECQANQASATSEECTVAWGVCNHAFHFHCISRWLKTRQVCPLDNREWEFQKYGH

In experiment [3] the target is T2, SCF^β-TRCP. The experiment in a line: Binding assay: recruitment of MetAP-2 to SCFβ-TRCP beads. Set-up: made in house. The following applies: MetAP-2 (18 μM) preincubated with Protac-1 (100 μM) 45 min; beads 1 hr room temperature; vs control beads. The method, then: 293T cell pellets were lysed with 200 μl of lysis buffer (25 mMTris/Cl, pH 7.5/150 mM NaCl/0.1% Triton X-100/5 mM NaF/0.05 mM EGTA/1 mM PMSF). Pellets from cells transfected with vector, pFLAG-β-TRCP, or pFLAG-Cul-1 were vortexed for 10 sec, then incubated on ice for 15 min. After centrifugation at 13,000 rpm in an Eppendorf microfuge (Germany) for 5 min at 4° C., the supernatant was added to 20 μl of FLAG M2 beads (Sigma), which were washed with lysis buffer three times before immu-noprecipitation. […] The beads were washed once each with buffers A and B. After centrifugation at 13,000 rpm in an Eppendorf microfuge (Germany) for 1 min, half of the bead and supernatant fractions, representing bound and unbound, respectively, were evaluated by Western blotting as described above. […] SDS/PAGE loading buffer was added to terminate reactions, which were evaluated by Western blotting as described above.
Before testing the activity of Protac-1, an approach to isolate and assay SCF^β-TRCP complexes in vitro as described (See Tan, P., et al., Mol. Cell, 3:327–33 (1999)) was first adapted. […] The beads and supernatant then were evaluated by Western blot analysis for the presence of MetAP-2. […]
Target sequence in this assay (Q9Y297 whole entry): as the sequence (Q9Y297 whole entry) above
Target sequence in this assay (Q13616 whole entry partner): as the sequence (Q13616 whole entry partner) above
Target sequence in this assay (P63208 2-163 partner limits assumed): as the sequence (P63208 2-163 partner limits assumed) above
Target sequence in this assay (P62877 whole entry partner): as the sequence (P62877 whole entry partner) above
Target sequence in this assay (P50579 whole entry, further chain): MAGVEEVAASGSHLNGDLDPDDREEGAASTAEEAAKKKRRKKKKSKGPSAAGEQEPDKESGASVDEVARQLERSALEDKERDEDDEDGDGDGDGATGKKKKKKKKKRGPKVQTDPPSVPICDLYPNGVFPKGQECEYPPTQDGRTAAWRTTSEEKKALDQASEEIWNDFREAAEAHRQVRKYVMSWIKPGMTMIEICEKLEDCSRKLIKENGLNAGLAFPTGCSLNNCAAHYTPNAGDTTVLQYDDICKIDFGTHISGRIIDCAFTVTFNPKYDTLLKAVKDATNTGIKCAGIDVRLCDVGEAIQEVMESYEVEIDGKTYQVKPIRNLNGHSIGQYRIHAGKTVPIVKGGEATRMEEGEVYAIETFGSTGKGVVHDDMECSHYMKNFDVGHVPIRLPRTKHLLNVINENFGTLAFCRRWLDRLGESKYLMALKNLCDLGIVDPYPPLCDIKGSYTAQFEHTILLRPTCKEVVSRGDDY

Experiment [4] deals with MetAP-2. Briefly: In vitro ubiquitination of MetAP-2 by SCFβ-TRCP beads with E1, E2 (Cdc34), ubiquitin, ATP. The following applies: 1 hr at 30° C.; 47-kDa and 67-kDa MetAP-2 preparations; Western blot. Type of experiment: biochemical.
Protocol: Pellets from cells transfected with vector, pFLAG-β-TRCP, or pFLAG-Cul-1 were vortexed for 10 sec, then incubated on ice for 15 min. After centrifugation at 13,000 rpm in an Eppendorf microfuge (Germany) for 5 min at 4° C., the supernatant was added to 20 μl of FLAG M2 beads (Sigma), which were washed with lysis buffer three times before immu-noprecipitation. Lysates were incubated with the beads on a rotator for 2 hr at 4° C., followed by one wash with buffer A (25 mM Hepes buffer, pH 7.4/0.01% Triton X-100/150 mM NaCl) and one wash with buffer B (the same buffer without the Triton X-100). […] After the addition of ligand, the beads were rotated at room temperature for 1 hr. The beads were washed once each with buffers A and B. After centrifugation at 13,000 rpm in an Eppendorf microfuge (Germany) for 1 min, half of the bead and supernatant fractions, representing bound and unbound, respectively, were evaluated by Western blotting as described above. For ubiquitination reactions, 4 μl of 18 μM MetAP-2, 4 μl of 100 μM Protac-1, 0.5 ml of 0.1 μg/μl purified mouse E1, 1 μl of 0.5 μg/μl human Cdc34 E2, and 1 μl of 25 mM ATP were added to 20 μl (packed volume) of washed FLAG-M2 beads. […] SDS/PAGE loading buffer was added to terminate reactions, which were evaluated by Western blotting as described above. […]
Experiment [5] addresses T1, MetAP-2. Briefly: Degradation experiments with Xenopus egg extracts. The class given is biochemical, Xenopus laevis. As to the method: Extracts from unfertilized Xenopus laevis eggs were prepared the day of the experiment, as described (See Murray, A. W., Methods Cell Biol., 3:581–605 (1991)). The MetAP-2-Protac-1 mixture (4 μl of 9 μM MetAP-2 plus 50 μMProtac-1) or MetAP-2 alone was added to […] of extract in addition to OVA (10 μM final), constitutively active IKK (IKK-EE, 0.4 μg), and okadaic acid (OA; 10 μM final). N-acetyl-leu-leu-norleucinal (LLnL, 50 μM final), epoxomicin (10 μM final), or DMSO vehicle were added to the indicated concentrations to inhibit degradation by the proteasome. The protease inhibitors chymostatin, pepstatin, and leupeptin ([…] final concentration) also were added to the extracts. Reactions were incubated for the indicated times at room temperature and terminated by adding 50 μl of SDS/PAGE loading buffer. Samples were evaluated by Western blotting as described above.
However, the key issues are whether Protac-1 can specifically activate MetAP-2 degradation, and whether targeted degradation can be achieved by endogenous ubiquitin/proteasome pathway components at typical intracellular concentrations. To address these questions, MetAP-2 was preincubated with Protac-1 to allow the complexes to form, and then added the mixture to Xenopus egg extract supplemented with IKK-EE (See Mercurio, F., Zhu, et al., Science,. 278:860–66. (1997)), OA, and OVA. The addition of IKK-EE and OA was intended to sustain phosphorylation of the IkBa peptide moiety of Protac-1, whereas OVA was added to prevent the further linkage of Protac-1 to MetAP-2. […] Moreover, addition of both IKK-EE and OA was required for optimal degradation of MetAP-2-Protac-1. Similarly, we have seen specific turnover of the MetAP-2-Protac-1complex, but not free MetAP-2, in three independent experiments. […] MetAP-2 turnover was very specific, in that maximal degradation required agents predicted to sustain phosphorylation of the LkBa peptide.

In experiment [6] the target is T1, MetAP-2. The settings on record: covalent, active site His-231; cited from earlier work.
T1 sequence (P50579 110-478 limits assumed): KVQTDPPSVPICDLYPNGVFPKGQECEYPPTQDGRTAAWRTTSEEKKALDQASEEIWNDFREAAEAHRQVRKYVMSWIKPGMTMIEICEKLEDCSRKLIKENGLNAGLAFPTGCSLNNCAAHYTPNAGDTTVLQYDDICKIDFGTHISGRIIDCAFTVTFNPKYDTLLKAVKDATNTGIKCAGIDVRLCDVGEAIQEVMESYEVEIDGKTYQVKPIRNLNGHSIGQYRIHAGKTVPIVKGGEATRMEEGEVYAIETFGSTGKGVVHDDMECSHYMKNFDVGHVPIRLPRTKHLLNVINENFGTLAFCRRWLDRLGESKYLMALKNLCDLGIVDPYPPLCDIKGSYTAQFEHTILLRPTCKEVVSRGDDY

T1 sequence (P50579 whole entry, species assumed): as the sequence (P50579 whole entry, further chain) above

Turning to “IkBa peptide-suberate-Gly-ovalicinol [Protac-1]”, the “formation of MetAP-2-Protac-1 complex (upper band / doublet on anti-MetAP-2 Western blot)” value on MetAP-2 [1] is “specifically conjugated to the OVA moiety of Protac-1 in a concentration-dependent manner”; at MetAP-2 [1] (listed as Protac), “MetAP-2 binds Protac specifically and in a concentration-dependent manner”. In addition, the “inhibition of ubiquitination of IKK-phosphorylated GST-IkBalpha” value at SCF^β-TRCP [2] is listed as “inhibited”. At SCF^β-TRCP [3], the “recruitment of MetAP-2 to SCFβ-TRCP beads” value is recorded as “specifically recruited MetAP-2 to SCF^β-TRCP”. In the experiment on MetAP-2 [4], the “ubiquitination of MetAP-2 by SCFβ-TRCP” value is given as “specifically elicited ubiquitination of MetAP-2 by SCF^β-TRCP; also recorded: ubiquitinated in the presence of Protac-1”. The “degradation of MetAP-2-Protac-1 complex” value at MetAP-2 [5] (Xenopus egg extract with IKK-EE, OA and OVA, room temperature, MetAP-2 alone not degraded) is on record as “mostly degraded after 30 mm; also recorded: degraded by proteasomes in Xenopus extracts”.

`CO[C@@H]1[C@H](OC(=O)/C=C/C=C/C=C/C=C/C(=O)O)CC[C@]2(CO2)[C@H]1[C@@]1(C)O[C@@H]1CC=C(C)C` [fumagillin]: at MetAP-2 [6], the “inhibition of MetAP-2” value is on record as “inhibit MetAP-2 by covalently binding His-231 in the active site”.

Turning to `CC[C@H](C)[C@H](NC(=O)[C@H]([C@@H](C)CC)N(C)C(C)=O)C(=O)N[C@H](C(=O)N[C@@H](CC(C)C)C(=O)[C@@]1(C)CO1)[C@@H](C)O` [epoxomicin], the “effect on degradation of MetAP-2-Protac-1” value on MetAP-2 [5] (epoxomicin 10 μM final added to extract) is “attenuated”.

As for `CCCC[C@@H](C=O)NC(=O)[C@H](CC(C)C)NC(=O)[C@H](CC(C)C)NC(C)=O` [LLnL, N-acetyl-leu-leu-norleucinal] (Ac-Leu-Leu-[Nle]-aldehyde), the “effect on degradation of MetAP-2-Protac-1” value on MetAP-2 [5] (LLnL 50 μM final added to extract) is listed as “attenuated”.
